Experimental findings from patent publication US9976183B2, “Biomarkers for cancers responsive to modulators of HEC1 activity” (TAIVEX THERAPEUTICS CORPORATION, priority 2011, dated 2018) are described below.

Where only a bound is given, the exact number is not on record here.

What all share (format): cell-based
Test [1] relates to Huh7. The experiment in a line: Drug sensitivity, MTS cell viability assay (GI50). As for the experimental part:
(§1) Drug sensitivity: Cell lines were screened for drug sensitivity by treatment with specified drugs 24 hours after seeding in appropriate seeding numbers into 96 well plates containing low glucose DME with 10% FBS. The drug was added to the plate in triplicate wells, and the cells are incubated in drug treated medium for 96 hours before cell viability was determined by MTS assay using CellTiter 96® Aqueous non-radioactive cell proliferation assay system (Promega, Madison, Wis. 53711 USA). The MTS assay was performed according to the manufacturer's instructions. Optical density was measured using a Bio-Tek 340 spectrophotometer (Bio-Tek, Winooski, Vt. 05404) and optical readings were then processed in Excel (Microsoft, Redmond, Wash. 98052-7329) and GraphPad Prism 5 linear regression software (GraphPad Software, La Jolla, Calif. 92037 USA) to determine concentration-response curves for calculating relative GI50s. […] The % growth inhibition of the test drug on cells were calculated as: [1−(Test Value)/(Control Value)]×100; these values were used to plot concentration-response curves, and then analyzed with linear regression software.
Background: Tetrazolium assays rely on reduction of a dye to a coloured formazan, in cell work by metabolically active cells.

Another test deals with K562R. As to the kind of experiment: Drug sensitivity, MTS assay, drug resistant cell line. Particulars: Homo sapiens, K-562R, Gleevec resistant myelogenous leukemia. As for the experimental part: as §1
For a further test, the system named is MEX-SA/Dx5. The description is as above. The note with it: MEX-SA/Dx5, multi-drug resistant uterine sarcoma. As for the experimental part:
as §1

A further test concerns NCI/ADR-RES. The test is described as above. Particulars: Homo sapiens, multi-drug resistant uterine sarcoma. As for the experimental part: as §1
In test [2] the test system is HeLa. As to the kind of experiment: Synergy of Hec1 inhibitor with cytotoxic drug (combination index, MTS). As for the experimental part:
(§2) Synergy: GI50s for selected drugs were determined and used to calculate a concentration ratio for use synergy assays with Hec1 inhibitors. Cells were treated with drugs 24 hours after being seeded in appropriate seeding numbers into 96 well plates containing low glucose DME with 10% FBS. […] Cell viability was determined by MTS assay using a CellTiter 96® Aqueous non-radioactive cell proliferation assay system (Promega, Madison, Wis. 53711 USA) according to the manufacturer's instructions. Optical density was determined using a Bio-Tek 340 spectrophotometer (Bio-Tek, Winooski, Vt. 05404) and were then processed using Excel (Microsoft, Redmond, Wash. 98052-7329) and GraphPad Prism 5 linear regression software (GraphPad Software, La Jolla, Calif. 92037 USA) to determine concentration-response curves for calculating relative GI50s. Synergy was determined by calculating a combination index value using the formula CI (combination index)=(CA,X/ICx,A)+(CB,X/ICx,B), where CA,X and CB,X are the concentrations of drug A and drug B used in combination to achieve x % drug effect. ICx,A and ICx,B are the concentrations for single agents to achieve the same effect.
(§3) Hec1 inhibitor-responsive cancer cells used for screening were treated with a mixture of Hec1 inhibitor and select anti-cancer drug at appropriate concentration ratios and evaluated for cell viability.

Test [3] relates to K562. Described as above. Here is the method:
as §2, §3

The test system of a further test is MB-231. The test is described as above. As for the experimental part:
as §2, §3

In another test the test system is MB-468. Described as above. Here is the method: as §2, §3
The test system of test [4] is Hep3B. The description is as above. The arrangement: key to Combination Index: CI = (CA,X/ICx,A)+(CB,X/ICx,B) at x% drug effect. Here is the method: as §2, §3
Test [5] concerns Huh7. Described as above. Also noted: key to Combination Index: CI = (CA,X/ICx,A)+(CB,X/ICx,B) at x% drug effect. Here is the method: as §2, §3
Test [6] deals with HepG2. Described as above. Also noted: key: CI = (CA,X/ICx,A)+(CB,X/ICx,B) at x% drug effect. Here is the method: as §2, §3
Another test deals with PCL/PRF/5. Described as above. Also noted: key: CI = (CA,X/ICx,A)+(CB,X/ICx,B) at x% drug effect. Here is the method: as §2, §3
Test [7] relates to HeLa. As to the kind of experiment: Drug sensitivity, MTS cell viability assay (GI50). Particulars: Homo sapiens, 96 hours. As for the experimental part:
as §1

Test [8] relates to Hep3B. As to the kind of experiment: Drug sensitivity, MTS cell viability assay (GI50). Particulars: Homo sapiens, 96 h. As for the experimental part: as §1
Test [9] has as its system HepG2. As to the kind of experiment: Drug sensitivity, MTS cell viability assay (GI50). Particulars: Homo sapiens; for GI50: HepG2, 96 hours, MTS. As for the experimental part:
as §1

The test system of the next test is Hs578T. As to the kind of experiment: Drug sensitivity, MTS cell viability assay (GI50). Particulars: Homo sapiens, Hs-578T, 96 hours. As for the experimental part: as §1
Test [10] relates to K562. As to the kind of experiment: Drug sensitivity, MTS cell viability assay (GI50). The note with it: Homo sapiens, K562, 96 h. Here is the method:
as §1

The next test deals with MDA-MB-453. As to the kind of experiment: Drug sensitivity, MTS cell viability assay (GI50). Particulars: Homo sapiens, MDA-MB-453, 96 hours. As for the experimental part:
as §1

For another test, the system named is MDA-MB-468. The experiment in a line: Drug sensitivity, MTS cell viability assay (GI50). Here is the method:
as §1

Another test concerns PLC/PRF/5. The experiment in a line: Drug sensitivity, MTS cell viability assay (GI50). Particulars: Homo sapiens, PLC/PRF/5, 96 hours. As for the experimental part: as §1
Another test relates to T47D. As to the kind of experiment: Drug sensitivity, MTS cell viability assay (GI50). Particulars: Homo sapiens, 96 hours. Here is the method: as §1
Another test has as its system ZR-75-1. The experiment in a line: Drug sensitivity, MTS cell viability assay (GI50). Particulars: Homo sapiens, ZR-75-1, 96 hours. As for the experimental part:
as §1

The next test deals with MDA-MB-231. As to the kind of experiment: Drug sensitivity, MTS cell viability assay (GI50). Here is the method:
as §1

Where [11] appears, read: in combination with doxorubicin.
Setting [12] is: in combination with Taxol (paclitaxel).
Setting [13] is: Homo sapiens, Huh-7, 96 h, Huh7, 96 hours, MTS.

Broadly, the GI50 is the concentration giving 50% growth inhibition. The compound `O=C(Cc1ccc(-c2ccc(OCCN3CCOCC3)cc2)cn1)NCc1ccccc1` [KX01] came in with a concentration for 50% growth inhibition (GI50) in the test on Huh7 [1] (Huh7, 96 hours, MTS) of 27.2 nM.

On to `COc1ccc(Oc2cc(C)c(-c3csc(NC(=O)c4ccnc(F)c4)n3)c(C)c2)cc1` [compound 101015, 2-fluoro-N-(4-(4-(4-methoxyphenoxy)-2,6-dimethylphenyl)thiazol-2-yl)isonicotinamide], for which the results for the 50% growth inhibitory concentration (GI50) in the test on K562R, in the test with MEX-SA/Dx5 and with NCI/ADR-RES were 26 nM, 34.9 nM and 21.6 nM, respectively. The “Combination Index” value with HeLa [2] (in combination with Taxol) is recorded as 1.01; in the test with HeLa [2] (setting [11]), 6.83; in the test on HeLa [2] (in combination with topotecan), 1.58; in the test with K562 [3] (setting [12]), 0.62; in the test on K562 [3] (setting [11]) it was 0.62; in the test with K562 [3] (in combination with topotecan) it was 1.12. In addition, the “Combination Index” value stood at 0.98 with MB-231 (setting [12]); 1.75 in the test with MB-231 (setting [11]); 0.85 with MB-231 (in combination with topotecan); 1.16 in the test on MB-468 (in combination with Taxol); 1.23 in the test on MB-468 (setting [11]); 0.74 with MB-468 (in combination with topotecan). The “Combination Index” value stood at 2.32 in the test with Hep3B [4] (in combination with KX01); 2.38 with Hep3B [4] (in combination with Taxol); 2.00 with Hep3B [4] (setting [11]); 1.91 in the test on Hep3B [4] (in combination with sorafenib); 1.05 in the test on Hep3B [4] (in combination with topotecan); 1.08 in the test with Huh7 [5] (in combination with KX01 (KXO1)). Further, the “Combination Index” value in the test on Huh7 [5] (setting [12]) is 0.32; in the test on Huh7 [5] (setting [11]), 0.54; in the test with Huh7 [5] (in combination with sorafenib), 1.08; in the test on Huh7 [5] (in combination with topotecan), 0.62; with HepG2 [6] (in combination with KX01) it was 1.68; in the test on HepG2 [6] (setting [11]), 1.74. Further, the “Combination Index” value came to 0.89 in the test with HepG2 [6] (in combination with sorafenib); 1.92 with HepG2 [6] (in combination with topotecan); 1.31 with PCL/PRF/5 (in combination with KX01); 0.99 with PCL/PRF/5 (in combination with Taxol); 1.65 in the test with PCL/PRF/5 (setting [11]); 1.15 with PCL/PRF/5 (in combination with sorafenib). Besides, the “Combination Index” value in the test on PCL/PRF/5 (in combination with topotecan) was 1.17.

For `COc1cccc2c1C(=O)c1c(O)c3c(c(O)c1C2=O)C[C@@](O)(C(=O)CO)C[C@@H]3O[C@H]1C[C@H](N)[C@H](O)[C@H](C)O1` [doxorubicin], the GI50 in the test on HeLa [7] worked out at 242 nM; with Hep3B [8], 248 nM; with HepG2 [9], 0.746 µM; with Hs578T it was 711 nM; with Huh7 [1] (setting [13]), 183 nM; with Huh7 [1] (Homo sapiens, Huh-7, Huh7, unit inferred), 183 nM. Besides, the GI50 in the test with K562 [10] came out at 36.2 nM; in the test with MDA-MB-453 it was 158 nM; with MDA-MB-468 (Homo sapiens, MDA-MB-468, 96 h), 28.3 nM; in the test on MDA-MB-468 (MDA-MB-468, 96 hours) it was 27 nM; with PLC/PRF/5 it was 69.7 nM; with T47D, 11.9 nM. Growth in the test with ZR-75-1 was halved (GI50) at 0.0929 µM.

In general, IC50 refers to the concentration that gives 50% inhibition. Regarding `CC(=O)O[C@H]1C(=O)[C@@]2(C)[C@H]([C@H](OC(=O)c3ccccc3)[C@]3(O)C[C@H](OC(=O)[C@H](O)[C@@H](NC(=O)c4ccccc4)c4ccccc4)C(C)=C1C3(C)C)[C@]1(OC(C)=O)CO[C@@H]1C[C@@H]2O` [paclitaxel], the GI50 in the test with HeLa [7] is 7.8 nM; in the test with Hep3B [8], 9.47 nM; with HepG2 [9] (bound given in μM) it was greater than 50 µM; with Hs578T, 8.39 nM; with Huh7 [1] (Huh7, 96 hours, MTS), 93.5 nM; in the test with MDA-MB-231 (Homo sapiens, MDA-MB-231, 96 h), 3 nM. Also, the GI50 with MDA-MB-231 (MDA-MB-231, 96 hours) was 4.91 nM; in the test on MDA-MB-453, 1.42 nM; in the test on MDA-MB-468 (Homo sapiens, MDA-MB-468, 96 h), 2.38 nM; in the test on PLC/PRF/5, 8.58 nM; with T47D it was 3.19 nM; with ZR-75-1 (bound given in μM) it was greater than 10 µM. Besides, the values for the GI50 in the test with K562R, with MEX-SA/Dx5 and in the test on NCI/ADR-RES were 34.5 nM, 6250 nM and 2330 nM, respectively. In addition, in the test with HepG2 [9] (HepG2, Taxol-resistant), the IC50 was greater than 10000 nM.

Turning to `CNC(=O)c1cc(Oc2ccc(NC(=O)Nc3ccc(Cl)c(C(F)(F)F)c3)cc2)ccn1` [sorafenib], the concentration for 50% growth inhibition (GI50) in the test on Hep3B [8] stood at 3680 nM; with HepG2 [9], 8.25 µM; in the test on Huh7 [1] (setting [13]), 4500 nM; in the test with MDA-MB-231 (Homo sapiens, MDA-MB-231, 96 h), 3040 nM; in the test with MDA-MB-453 it was 2520 nM; with MDA-MB-468 (Homo sapiens, MDA-MB-468, 96 h), 3170 nM. Moreover, the 50% growth inhibitory concentration (GI50) in the test on PLC/PRF/5 was determined as 3760 nM; in the test with T47D, 1730 nM; with ZR-75-1, 4.34 µM.

Turning to `CC[C@@]1(O)C(=O)OCc2c1cc1n(c2=O)Cc2cc3c(CN(C)C)c(O)ccc3nc2-1` [topotecan], the GI50 with HeLa [7] stood at 637 nM; in the test with Hep3B [8], 422 nM; with HepG2 [9] it was 0.435 µM; in the test with Hs578T it was 4960 nM; with Huh7 [1] (Huh7, 96 hours, MTS) it was 50.9 nM; in the test on K562 [10] it was 36.1 nM. For the same compound, the GI50 in the test with MDA-MB-231 (Homo sapiens, MDA-MB-231, 96 h) worked out at 347 nM; in the test with MDA-MB-453, 92.3 nM; with MDA-MB-468 (Homo sapiens, MDA-MB-468, 96 h), 10.7 nM; with PLC/PRF/5, 174 nM; in the test with T47D it was 9.43 nM; in the test with ZR-75-1, 0.0363 µM.
